Measured values from US6174897A, “Bis-(quinolyl)-diamines” (Bayer Aktiengesellschaft, priority 1996, dated 2001).

Key:
[1] = target: apamin binding sites / apamin receptors (bovine cerebral membrane, calf hippocampus); experiment: Binding of 125I-apamin to bovine cerebral membrane; conditions: 125I-apamin 30 pM, calf hippocampus membranes
Description: 1) Binding of ^125 1I-apamine to Bovine Cerebral Membrane
Calf brains were obtained from the local abattoir. The hippocampus was prepared on ice and a membrane suspension was made up by homogenization twice in buffer (100 mM Tris-HCl, KCl 5 mM, pH 7.4) and centrifugation at 43,000×g. In a total volume of 500 μl, the incubation mixture contained 200 μg of membrane protein, 30 pM ^125 I-apamin and test substances in the concentration range 1×10^-9 to 1×10^-4 M. The non-specific binding of ^125 I-apamine was determined in the presence of 1×10^-7 M unlabelled apamin.
After preincubation for 30 min at room temperature (test substances and membrane homogenate), the samples were placed on ice for 10 min before the radioligand was added. The main incubation time was 60 min on ice. When the reaction time had elapsed, an excess of ice-cooled incubation buffer was added to each sample and the mixture was filtered with suction through cellulose acetate/nitrate membrane filters. The amount of bound ^125 I-apamin was measured with a gamma counter.

[2] = system: apamin-sensitive potassium channels (PC12 cells); experiment: Non-radioactive Rb+ efflux assay in PC12 cells; assay type: cell-based
Description: 2) Non-radioactive Rb^+ Efflux Assay for the Identification of Potassium Channel Modulators
The cellular potassium in PC12 cells is exchanged with rubidium, which is not present in the cells. This exchange is performed by incubating the cells over a period of 4 h in a physiological buffer containing 5.4 mM RbCl without KCl. This rubidium subsequently serves as a tracer for potassium. The cells laden with Rb^+ in this way are washed three times and then stimulated by depolarization with 50 mM KCl to open potassium channels (10 min), causing Rb^+ to flow out of the cells into the supernatant according to the concentration gradient.
The rubidium contents in the cell supernatant and in the residual cells after they have been lysed with 1% Triton X-100 are then determined by means of atomic absorption spectroscopy. The relative proportion of rubidium in the cell supernatent (=Rb^+ efflux) is used as a measure of the potassium channel activity.
The effect of substances on the channel activity is measured by co-incubating the test substance over the ten-minute stimulation period and determining its effect on the Rb^+ efflux in the manner described above.

Compound: CCCc1cc(NCCCCCNc2cc(CCC)nc3ccccc23)c2ccccc2n1 [Example 2]
- Ki [1]: 13 nM

Compound: Cc1cccc2c(NCCCCCNc3cc(C(C)C)nc4c(C)cccc34)cc(C(C)C)nc12 [Example 4]
- % inhibition of the Rb efflux ([2]; at 1 μM): 68%
- % inhibition of the Rb efflux ([2]; test concentration of 10 μM): 75%

Compound: CCc1cc(NCCCCCNc2cc(CC)nc3ccccc23)c2ccccc2n1 [Example 1]
- Ki [1]: 17 nM
- % inhibition of the Rb efflux ([2]; test concentration of 10 μM): 77%
